Measurements published in patent publication US7495018B2, “Substituted 1,3-thiazole compounds, their production and use” (Takeda Pharmaceutical Company Limited, priority 2000, dated 2009).

| Structure (SMILES) | melting point [°C] |
| --- | --- |
| Cc1cccc(-c2nc(NC(=O)c3ccc(Cl)nc3)sc2-c2ccnc(C)c2)c1 [Example Compound 43, 6-chloro-N-[4-(3-methylphenyl)-5-(2-methyl-4-pyridyl)-1,3-thiazol-2-yl]nicotinamide] | 228 to 230 |
| Cc1cccc(-c2nc(NC(=O)Nc3ccccc3)sc2-c2ccnc(NC3CCCC3)c2)c1 [Example Compound 53-3, N-[5-(2-cyclopentylamino-4-pyridyl)-4-(3-methylphenyl)-1,3-thiazol-2-yl]-N′-phenylurea] | 188 to 190 |
| CCC(=O)Nc1cc(-c2sc(CC)nc2-c2cccs2)ccn1 [Example Compound 30-10, N-[4-[2-ethyl-4-(2-thienyl)-1,3-thiazol-5-yl]2-pyridyl]propionamide] | 187 to 188 |
| Nc1nc(-c2ccc(F)cc2)c(-c2ccnc(NC3CCCCC3)c2)s1 [Example Compound 36-1, [5-(2-cyclohexylamino-4-pyridyl)-4-(4-fluorophenyl)-1,3-thiazol-2-yl]amine] | 194 to 195 |
| CNc1nc(-c2cccc(C)c2)c(-c2ccnc(NC3CCCC3)c2)s1 [Example Compound 36-3, N-methyl-[5-(2-cyclopentylamino-4-pyridyl)-4-(3-methylphenyl)-1,3-thiazol-2-yl]amine] | 170 to 172 |
| O=C(Nc1nc(-c2ccc(F)cc2)c(-c2ccnc(NC3CCCCC3)c2)s1)c1cccnc1 [Example Compound 42-5, N-[5-(2-cyclohexylamino-4-pyridyl)-4-(4-fluorophenyl)-1,3-thiazol-2-yl]nicotinamide] | 136 to 138 |
| Cc1cccc(-c2nc(NC(=O)c3ccc(C)nc3)sc2-c2ccnc(NC3CCCCC3)c2)c1 [Example Compound 46-1, N-[5-(2-cyclohexylamino-4-pyridyl)-4-(3-methylphenyl)-1,3-thiazol-2-yl]-6-methylnicotinamide] | 242 to 243 |
| CCc1nc(-c2ccc(Cl)cc2)c(-c2ccnc(NC(C)=O)c2)s1 [Example 82-6, N-[4-[4-(4-chlorophenyl)-2-ethyl-1,3-thiazol-5-yl]-2-pyridyl]acetamide] | 190 to 191 |
| Cc1cccc(-c2nc(C(=O)O)sc2-c2ccnc(C)c2)c1 [Example Compound 25-2, 5-(2-methyl-4-pyridyl)-4-(3-methylphenyl)-1,3-thiazole-2-carboxylic acid] | 135 to 136 |
| CCc1nc(-c2cccc(C)c2)c(-c2ccnc(NC(=O)CC3CCCC3)c2)s1 [Example 89, N-[4-[2-ethyl-4-(3-methylphenyl)-1,3-thiazol-5-yl]-2-pyridyl]cyclopentylacetamide] | 85 to 86 |
| CCc1cccc(-c2nc(CC)sc2-c2ccnc(N)c2)c1 [Example Compound 20-8, 4-[2-ethyl-4-(3-ethylphenyl)-1,3-thiazol-5-yl]2-pyridylamine] | 128 to 129 |
| CNc1nc(-c2cccc(C)c2)c(-c2ccnc(F)c2)s1 [Example Compound 8, N-methyl-[5-(2-fluoro-4-pyridyl)-4-(3-methylphenyl)-1,3-thiazol-2-yl]amine] | 186 to 187 |
| CCc1nc(-c2cccc(Br)c2)c(-c2ccnc(NC(=O)OC(C)(C)C)c2)s1 [Example Compound 75-1, 4-(3-bromophenyl)-5-[2-(tert-butoxycarbonylamino)-4-pyridyl]-2-ethyl-1,3-thiazole] | 172 to 174 |
| CCC(=O)Nc1cc(-c2sc(CC)nc2-c2cccc(Cl)c2)ccn1 [Example Compound 30-8, N-[4-[4-(3-chlorophenyl)-2-ethyl-1,3-thiazol-5-yl]-2-pyridyl]propionamide] | 132 to 133 |
| Cc1cc(C)cc(-c2nc(N)sc2-c2ccnc(C)c2)c1 [Example Compound 7-5, [4-(3,5-dimethylphenyl)-5-(2-methyl-4-pyridyl)-1,3-thiazol-2-yl]amine] | 219 to 220 |
| CCc1nc(-c2cccc(Cl)c2)c(-c2ccnc(NC(C)=O)c2)s1 [Example Compound 30-2, N-[4-[4-(3-chlorophenyl)-2-ethyl-1,3-thiazol-5-yl]-2-pyridyl]acetamide] | 149 to 150 |
| CCc1nc(-c2cccc(C(F)(F)F)c2)c(-c2ccnc(N)c2)s1 [Example Compound 20-4, 4-[2-ethyl-4-[3-(trifluoromethyl)phenyl]-1,3-thiazol-5-yl]-2-pyridylamine] | 117 to 118 |
| CC(=O)Nc1cc(-c2sc(C(C)=O)nc2-c2cccc(Cl)c2)ccn1 [Example 112, N-[4-[2-acetyl-4-(3-chlorophenyl)-1,3-thiazol-5-yl]-2-pyridyl]acetamide] | 180 to 183 |
| CCc1nc(-c2cccc(Br)c2)c(-c2ccnc(N)c2)s1 [Example Compound 75-2, 4-[4-(3-bromophenyl)-2-ethyl-1,3-thiazol-5-yl]-2-pyridylamine] | 132 to 134 |
| Cc1cccc(-c2nc(-c3ccc(F)cc3)sc2-c2ccnc(C)c2)c1 [Example Compound 14-4, 2-(4-fluorophenyl)-4-(3-methylphenyl)-5-(2-methyl-4-pyridyl)-1,3-thiazole] | 89 to 91 |
| CCC(=O)Nc1cc(-c2sc(CC)nc2-c2ccc(F)cc2)ccn1 [Example 84-2, N-[4-[2-ethyl-4-(4-fluorophenyl)-1,3-thiazol-5-yl]-2-pyridyl]propionamide] | 156 to 157 |
| CCOC(=O)c1nc(-c2cccc(C)c2)c(-c2ccnc(N)c2)s1 [Example Compound 18-6, Ethyl [5-(2-amino-4-pyridyl)-4-(3-methylphenyl)-1,3-thiazol-2-yl]carboxylate] | 147 to 148 |
| CSc1ccc(-c2nc(-c3cccc(Cl)c3)c(-c3ccnc(NC(=O)C(C)(C)C)c3)s2)cc1 [Example Compound 30-12, N-[4-[4-(3-chlorophenyl)-2-[4-(methylthio)phenyl]-1,3-thiazol-5-yl]-2-pyridyl]pivalamide] | 119 to 120 |
| CCc1nc(-c2ccc(SC)cc2)c(-c2ccnc(N)c2)s1 [Example Compound 20-5, 4-[2-ethyl-4-[4-(methylthio)phenyl]-1,3-thiazol-5-yl]-2-pyridylamine] | 119 to 120 |
| CSc1ccc(-c2nc(-c3cc(C)cc(C)c3)c(-c3cc(C)nc(C)c3)s2)cc1 [Example Compound 16-4, 4-(3,5-dimethylphenyl)-5-(2,6-dimethyl-4-pyridyl)-2-[4-(methylthio)phenyl]-1,3-thiazole] | 134 to 136 |
| Cc1cc(C)cc(-c2nc(NC(=O)c3cccnc3)sc2-c2cc(C)nc(C)c2)c1 [Example Compound 42-2, N-[4-(3,5-dimethylphenyl)-5-(2,6-dimethyl-4-pyridyl)-1,3-thiazol-2-yl]nicotinamide] | 267 to 268 |
| Cc1cccc(-c2nc(N(C)C(=O)c3ccc(C)nc3)sc2-c2ccnc(NC3CCCC3)c2)c1 [Example Compound 46-4, N-[5-(2-cyclopentylamino-4-pyridyl)-4-(3-methylphenyl)-1,3-thiazol-2-yl]-N,6-dimethylnicotinamide] | 117 to 118 |
| CCc1nc(-c2ccc(F)cc2)c(-c2ccnc(NC(C)=O)c2)s1 [Example 82-2, N-[4-[2-ethyl-4-(4-fluorophenyl)-1,3-thiazol-5-yl]-2-pyridyl]acetamide] | 190 to 191 |
